# Where a name gives a salt, the structure may show the parent alone.
# Molecular target: T1, recombinant human ALX receptor (Homo sapiens, UniProt P25090)
# T1 construct: expressed in transfected cells; host or cells: HEK293 (HEK293-hALXR-Gα16)
# T1 sequence (P25090 1-351): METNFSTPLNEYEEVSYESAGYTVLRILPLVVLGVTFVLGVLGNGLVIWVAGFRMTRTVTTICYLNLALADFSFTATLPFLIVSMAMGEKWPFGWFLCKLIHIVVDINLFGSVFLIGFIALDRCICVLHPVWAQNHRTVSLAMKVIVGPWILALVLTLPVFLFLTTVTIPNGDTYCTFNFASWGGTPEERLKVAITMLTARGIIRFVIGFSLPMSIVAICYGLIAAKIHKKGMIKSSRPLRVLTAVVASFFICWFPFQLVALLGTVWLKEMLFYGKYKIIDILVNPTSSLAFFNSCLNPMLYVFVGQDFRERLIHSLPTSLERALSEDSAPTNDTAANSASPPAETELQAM
# Test: Intracellular calcium measurements (FLIPR), ALX receptor agonistic activity
# Format: cell-based
# Settings: HEK293-hALXR-Gα16 cells, Fluo-4 calcium signal, normalized to WKYMVm 10 nM
# Protocol: The ALX receptor agonistic activity of the compounds of formula (I) is determined in accordance with the following experimental method.
# Intracellular Calcium Measurements:
# Cells expressing recombinant human ALX receptor and the G-protein Gα16 (HEK293-hALXR-Gα16) were grown to 80% confluency in Growing Medium (GM). Cells were detached from culture dishes with a cell dissociation buffer (Invitrogen, 13151-014), and collected by centrifugation at 1′000 rpm at rt for 5 min in Assay Buffer (AB) (equal parts of Hank's BSS (Gibco, 14065-049) and DMEM without Phenol Red (Gibco, 11880-028)). After 60 min incubation at 37° C. under 5% CO2 in AB supplemented with 1 μM Fluo-4 (AM) (Invitrogen, F14202) and 20 mM HEPES (Gibco, 15630-056), the cells were washed and resuspended in AB. They were then seeded onto 384-well FLIPR assay plates (Greiner, 781091) at 50′000 cells in 70 μl per well and sedimented by centrifugation at 1′000 rpm for 1 min. Stock solutions of test compounds were made up at a concentration of 10 mM in DMSO, and serially diluted in AB to concentrations required for activation dose response curves. WKYMVm (Phoenix Peptides) was used as a reference agonist. A FLIPR Tetra instrument (Molecular Devices) was operated according to the manufacturer's standard instructions, adding 4 μl of test compound dissolved at 10 mM in DMSO and diluted prior to the experiment in assay buffer to obtain the desired final concentration. Changes in fluorescence were monitored before and after the addition of test compounds at lex=488 nm and lem=540 nm. Emission peak values above base level after compounds addition were exported after base line subtraction. Values were normalized to high-level control (WKYMVm compound, 10 nM final concentration) after subtraction of the base line value (AB addition).
row,Molecule,EC50 [µM]
1,"1-(1-(1H-Benzo[d]imidazol-2-yl)-2-(3,5-difluoro-4-methoxyphenyl)ethyl)-3-(4-hydroxybicyclo[2.2.2]octan-1-yl)urea [Example 242]",0.07
2,"C[C@]1(O)CC[C@H](NC(=O)NC(Cc2ccc(C(F)(F)F)c(F)c2)c2nc3ccccc3[nH]2)CC1 (mixture of isomers) [Example 239, 1-(1-(1H-Benzo[d]imidazol-2-yl)-2-(3-fluoro-4-(trifluoromethyl)phenyl)ethyl)-3-(trans-4-hydroxy-4-methylcyclohexyl)urea]",0.077
3,"COc1c(F)cc(CC(NC(=O)N[C@H]2CC[C@](C)(O)CC2)c2nc3ccccc3[nH]2)cc1F (mixture of isomers) [Example 243, 1-(1-(1H-Benzo[d]imidazol-2-yl)-2-(3,5-difluoro-4-methoxyphenyl)ethyl)-3-(trans-4-hydroxy-4-methylcyclohexyl)urea]",0.155
4,"C[C@]1(O)CC[C@H](NC(=O)NC(Cc2ccc(Br)cc2F)c2nc3ccccc3[nH]2)CC1 (mixture of isomers) [Example 253, 1-(1-(1H-Benzo[d]imidazol-2-yl)-2-(4-bromo-2-fluorophenyl)ethyl)-3-(trans-4-hydroxy-4-methylcyclohexyl)urea]",0.025
5,"COc1ccc(CC(C)(NC(=O)N[C@H]2CC[C@H](O)CC2)c2nc3ccccc3[nH]2)cc1 (relative stereo) [Example 1, 1-(2-(1H-Benzo[d]imidazol-2-yl)-1-(4-methoxyphenyl)propan-2-yl)-3-(trans-4-hydroxycyclohexyl)urea]",0.152
6,"COc1ccc(C2(C(NC(=O)N[C@H]3CC[C@H](O)CC3)c3nc4ccccc4[nH]3)CC2)cc1 (relative stereo) [Example 2, 1-((1H-Benzo[d]imidazol-2-yl)(1-(4-methoxyphenyl)cyclopropyl)methyl)-3-(trans-4-hydroxycyclohexyl)urea]",0.081
7,"COc1ccc(C(C)(C)C(NC(=O)N[C@H]2CC[C@H](O)CC2)c2nc3ccccc3[nH]2)cc1 (relative stereo) [Example 3, 1-(1-(1H-Benzo[d]imidazol-2-yl)-2-(4-methoxyphenyl)-2-methylpropyl)-3-(trans-4-hydroxycyclohexyl)urea]",0.119
8,"COc1ccc(C[C@@H](NC(=O)N[C@H]2C[C@@H]2c2ccccc2)c2nc3ccccc3[nH]2)cc1 (relative stereo) [Example 16, 1-((R)-1-(1H-Benzo[d]imidazol-2-yl)-2-(4-methoxyphenyl)ethyl)-3-((1 S*,2R*)-2-phenylcyclopropyl)urea hydrochloride]",0.112
9,"COc1ccc(C[C@@H](NC(=O)N[C@H]2CCCC[C@H]2C(N)=O)c2nc3ccccc3[nH]2)cc1 (relative stereo) [Example 18, (1R*,2S*)-2-(3-((R)-1-(1H-Benzo[d]imidazol-2-yl)-2-(4-methoxyphenyl)ethyl)ureido)cyclohexanecarboxamide]",0.029
10,"CCOC(=O)[C@@H]1CCCC[C@H]1NC(=O)N[C@H](Cc1ccc(OC)cc1)c1nc2ccccc2[nH]1 (relative stereo) [Example 29, trans-Ethyl 2-(3-((R)-1-(1H-benzo[d]imidazol-2-yl)-2-(4-methoxyphenyl)ethyl)ureido)cyclohexanecarboxylate (ent-1)]",0.056
11,"COc1ccc(C[C@@H](NC(=O)N[C@H]2CCCC[C@H]2CO)c2nc3ccccc3[nH]2)cc1 (relative stereo) [Example 34, 1-((R)-1-(1H-Benzo[d]imidazol-2-yl)-2-(4-methoxyphenyl)ethyl)-3-((1 S*,2R*)-2-(hydroxymethyl)cyclohexyl)urea]",0.042
12,"COc1ccc(CC(NC(=O)N(C)[C@H]2CC[C@H](O)CC2)c2nc3ccccc3[nH]2)cc1 (relative stereo) [Example 76, 3-(1-(1H-Benzo[d]imidazol-2-yl)-2-(4-methoxyphenyl)ethyl)-1-(trans-4-hydroxycyclohexyl)-1-methylurea]",0.54
13,"CCOc1ccc(CC(NC(=O)N[C@H]2CC[C@H](O)CC2)c2nc3ccccc3[nH]2)cc1 (relative stereo) [Example 77, 1-(1-(1H-Benzo[d]imidazol-2-yl)-2-(4-ethoxyphenyl)ethyl)-3-(trans-4-hydroxycyclohexyl)urea]",0.203
14,"N#Cc1ccc(CC(NC(=O)N[C@H]2CC[C@H](O)CC2)c2nc3ccccc3[nH]2)cc1 (relative stereo) [Example 78, 1-(1-(1H-Benzo[d]imidazol-2-yl)-2-(4-cyanophenyl)ethyl)-3-(trans-4-hydroxycyclohexyl)urea]",0.693
15,"CC(C)(C)c1ccc(CC(NC(=O)N[C@H]2CC[C@H](O)CC2)c2nc3ccccc3[nH]2)cc1 (relative stereo) [Example 79, 1-(1-(1H-Benzo[d]imidazol-2-yl)-2-(4-(tert-butyl)phenyl)ethyl)-3-(trans-4-hydroxycyclohexyl)urea]",0.707
16,"COc1ccc(CC(NC(=O)N[C@H]2CC[C@H](OC)CC2)c2nc3ccccc3[nH]2)cc1 (relative stereo) [Example 80, 1-(1-(1H-Benzo[d]imidazol-2-yl)-2-(4-methoxyphenyl)ethyl)-3-(trans-4-methoxycyclohexyl)urea]",0.172

# These reach a lower EC50. Values come first.
row,EC50 [µM],Molecule
1,0.0052,"C[C@]1(O)CC[C@H](NC(=O)NC(Cc2ccc(Br)c(F)c2)c2nc3ccccc3[nH]2)CC1 (mixture of isomers) [Example 231, 1-(1-(1H-Benzo[d]imidazol-2-yl)-2-(4-bromo-3-fluorophenyl)ethyl)-3-(trans-4-hydroxy-4-methylcyclohexyl)urea]"
2,0.0051,"COc1ccc(CC(NC(=O)N[C@H]2CC[C@](C)(O)CC2)c2nc3ccccc3[nH]2)c(F)c1 (mixture of isomers) [Example 234, 1-(1-(1H-Benzo[d]imidazol-2-yl)-2-(2-fluoro-4-methoxyphenyl)ethyl)-3-(trans-4-hydroxy-4-methylcyclohexyl)urea]"
3,0.0035,"COc1cc(F)c(CC(NC(=O)N[C@H]2CC[C@](C)(O)CC2)c2nc3ccccc3[nH]2)c(F)c1 (mixture of isomers) [Example 236, 1-(1-(1H-Benzo[d]imidazol-2-yl)-2-(2,6-difluoro-4-methoxyphenyl)ethyl)-3-(trans-4-hydroxy-4-methylcyclohexyl)urea]"
4,0.0018,"COc1ccc(CC(NC(=O)N[C@H]2CC[C@](C)(O)CC2)c2nc3ccc(F)cc3[nH]2)c(F)c1 (mixture of isomers) [Example 246, 1-(1-(6-Fluoro-1H-benzo[d]imidazol-2-yl)-2-(2-fluoro-4-methoxyphenyl)ethyl)-3-(trans-4-hydroxy-4-methylcyclohexyl)urea]"
5,0.0072,"COc1cc(F)c(CC(NC(=O)N[C@H]2CC[C@](C)(O)CC2)c2nc3ccccc3[nH]2)cc1F (mixture of isomers) [Example 250, 1-(1-(1H-Benzo[d]imidazol-2-yl)-2-(2,5-difluoro-4-methoxyphenyl)ethyl)-3-(trans-4-hydroxy-4-methylcyclohexyl)urea]"
6,0.017,"COc1ccc(CC(NC(=O)N[C@H]2CC[C@](C)(O)CC2)c2nc3ccccc3[nH]2)c(F)c1F (mixture of isomers) [Example 252, 1-(1-(1H-Benzo[d]imidazol-2-yl)-2-(2,3-difluoro-4-methoxyphenyl)ethyl)-3-(trans-4-hydroxy-4-methylcyclohexyl)urea]"
7,0.024,"COc1ccc(C[C@@H](NC(=O)N[C@H]2CCCC[C@@H]2O)c2nc3ccccc3[nH]2)cc1 (relative stereo) [Example 24, 1-((R)-1-(1H-Benzo[d]imidazol-2-yl)-2-(4-methoxyphenyl)ethyl)-3-((1 S*,2S*)-2-hydroxycyclohexyl)urea]"
8,0.0092,"CCOC(=O)[C@@H]1CCCC[C@@H]1NC(=O)N[C@H](Cc1ccc(OC)cc1)c1nc2ccccc2[nH]1 (relative stereo) [Example 28, (1R*,2S*)-Ethyl 2-(3-((R)-1-(1H-benzo[d]imidazol-2-yl)-2-(4-methoxyphenyl)ethyl)ureido)cyclohexanecarboxylate]"
9,0.013,"COc1ccc(C[C@@H](NC(=O)N[C@H]2CCCC[C@@H]2CO)c2nc3ccccc3[nH]2)cc1 (relative stereo) [Example 32, 1-((R)-1-(1H-Benzo[d]imidazol-2-yl)-2-(4-methoxyphenyl)ethyl)-3-((1 S*,2S*)-2-(hydroxymethyl)cyclohexyl)urea]"
10,0.0014,"O=C(NC(Cc1ccc(Br)cc1)c1nc2cc(Cl)ccc2[nH]1)N[C@H]1CC[C@H](O)CC1 (relative stereo) [Example 81, 1-(2-(4-Bromophenyl)-1-(5-chloro-1H-benzo[d]imidazol-2-yl)ethyl)-3-(trans-4-hydroxycyclohexyl)urea]"
